{"source": "patent US8314092B2", "about": "“Substituted [(5H-pyrrolo[2,1-c][1,4]benzodiazepin-11-yl)piperazin-1-yl]-2,2-dimethylpropanoic acid compounds as dual activity H1 inverse agonists/5-HT2A antagonists” (Eli Lilly and Company, priority 2011, dated 2012)", "key": {"[1]": {"target": "T1, human recombinant H1 receptor (Homo sapiens, UniProt P35367)", "T1 sequence (P35367 whole entry)": "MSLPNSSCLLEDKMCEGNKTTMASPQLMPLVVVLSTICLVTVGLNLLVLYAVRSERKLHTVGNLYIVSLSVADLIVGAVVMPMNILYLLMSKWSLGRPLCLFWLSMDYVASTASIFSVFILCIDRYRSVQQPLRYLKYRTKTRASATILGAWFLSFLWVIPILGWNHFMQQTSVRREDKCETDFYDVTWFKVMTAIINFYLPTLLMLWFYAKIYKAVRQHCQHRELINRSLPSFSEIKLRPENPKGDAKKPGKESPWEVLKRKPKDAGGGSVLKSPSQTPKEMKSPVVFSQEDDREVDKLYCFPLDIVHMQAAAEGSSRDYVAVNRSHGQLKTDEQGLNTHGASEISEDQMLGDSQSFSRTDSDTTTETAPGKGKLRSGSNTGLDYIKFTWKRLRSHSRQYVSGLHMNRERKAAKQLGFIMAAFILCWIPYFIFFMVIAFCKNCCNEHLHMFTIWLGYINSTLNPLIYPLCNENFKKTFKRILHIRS", "assay": "H1 competition binding assay ([3H]-Pyrilamine SPA)", "design": "expressed in transfected cells", "protocol": "[^3H]-Pyrilamine binding experiments are carried out in SPA (scintillation proximity assay) 96-well format. Membranes used in this assay are prepared from HEK-293 cells stably expressing recombinant H1 receptor (human). The incubation is initiated by the addition of a mixture of WGA PVT SPA beads (1 mg/well, Perkin Elmer (MA, USA) RPNQ0001) and 3 μg membranes to assay buffer (67 mM Tris; pH 7.6) containing 3.5 nM [^3H]-Pyrilamine and varying concentrations of the test compound (10 point concentration response curves). Non-specific binding is determined in the presence of 10 μM Triprolidine. Samples are incubated for four hours at room temperature (22° C.) and then read in a Microbeta Trilux.\n(§1) Curves are evaluated using a 4-parameter logistic nonlinear equation to obtain the concentration of competitor causing 50% inhibition of radioligand binding (IC50). Equilibrium dissociation constants (Ki) are calculated according to the equation Ki=IC50/(1+L/Kd), where L equals the concentration of radioligand used in the experiment and Kd equals the equilibrium dissociation constant of the radioligand for the receptor, determined from standard saturation analysis or homologous competition experiments. Reported values for Ki, where n values are indicated, are shown as geometric mean±the standard error of the mean (SEM), with the number of replicate determinations indicated by n. […]"}, "native GABAA receptors": {"system": "native GABAA receptors", "assay": "GABAA antagonism using native receptors in primary neuronal cultures (FLIPR calcium flux)", "type": "cell-based, rat", "details": "against 10 μM GABA", "protocol": "Activity of compounds on native GABAA receptors is evaluated by monitoring calcium fluxes using a 96 well format FLIPR® system (Fluorometric Imaging Plate Reader (FLIPR®, Molecular Devices). Briefly, cortical embryonic neurons are dissociated from E18 rat embryos and plated at optimum density into black-walled, transparent bottom poly-D-lysine coated 96-well FLIPR® plates. After loading the cells with a calcium sensitive dye (Fluo-4-AM, Molecular Devices), the cells are bathed in a solution containing low chloride (chloride replaced by gluconate). Under these conditions activation of GABAA receptors causes an efflux of chloride ions (in the direction of the chemical gradient), which results in membrane depolarization and consequently activation of voltage gated calcium channels (VGCCs). Calcium influx through VGCCs is recorded and analysed offline using the FLIPR® system. For a pharmacological validation of the assay, concentration response curves (CRC) are recorded for the standard agonist (GABA) and standard antagonist (Gabazine). […]\nThe antagonist effects of compounds are quantified using 10-point dose response curves by comparing the peak fluorescent responses to the agonist GABA in the presence and absence of compound. […] Antagonist effects are calculated as a percent of the assay window. […]"}, "Dopamine D1": {"target": "Dopamine D1 (Homo sapiens, UniProt P21728)", "sequence (P21728 whole entry)": "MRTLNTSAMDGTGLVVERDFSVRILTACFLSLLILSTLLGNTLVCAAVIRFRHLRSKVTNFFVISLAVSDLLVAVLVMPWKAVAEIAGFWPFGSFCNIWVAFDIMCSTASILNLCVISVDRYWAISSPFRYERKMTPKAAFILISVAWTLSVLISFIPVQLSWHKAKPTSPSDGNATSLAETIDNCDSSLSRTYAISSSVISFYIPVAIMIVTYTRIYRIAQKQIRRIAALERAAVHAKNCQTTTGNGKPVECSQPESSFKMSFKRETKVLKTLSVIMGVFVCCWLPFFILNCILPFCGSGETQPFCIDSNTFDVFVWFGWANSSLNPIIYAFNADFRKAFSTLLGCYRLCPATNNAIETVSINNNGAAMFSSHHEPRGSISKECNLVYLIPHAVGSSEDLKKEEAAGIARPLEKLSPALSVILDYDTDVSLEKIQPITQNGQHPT", "assay": "Dopamine D1 binding", "excerpt": "(§2) Further, the compounds of the invention may be tested in binding assays and functional activity assays by well known methods for other physiologically important receptors such as, but not limited to, the hERG channel, other serotonin receptors (specifically 5-HT1A, 5-HT1B, 5-HT1D, 5-HT1E, 5-HT1F receptors, lack of agonist activity at 5-HT2B receptors, 5-HT2C, 5-HT4, 5-HTS, 5-HT6, and 5-HT7 receptors), muscarinic receptors, dopaminergic receptors (specifically D1, D2, and D3), GABAA receptors, adrenergic receptors and monoamine transporters. Certain exemplified compounds are tested at these receptors and are shown to lack significant activity."}, "5-HT1D": {"target": "5-HT1D (Homo sapiens, UniProt P28221)", "sequence (P28221 whole entry, species assumed)": "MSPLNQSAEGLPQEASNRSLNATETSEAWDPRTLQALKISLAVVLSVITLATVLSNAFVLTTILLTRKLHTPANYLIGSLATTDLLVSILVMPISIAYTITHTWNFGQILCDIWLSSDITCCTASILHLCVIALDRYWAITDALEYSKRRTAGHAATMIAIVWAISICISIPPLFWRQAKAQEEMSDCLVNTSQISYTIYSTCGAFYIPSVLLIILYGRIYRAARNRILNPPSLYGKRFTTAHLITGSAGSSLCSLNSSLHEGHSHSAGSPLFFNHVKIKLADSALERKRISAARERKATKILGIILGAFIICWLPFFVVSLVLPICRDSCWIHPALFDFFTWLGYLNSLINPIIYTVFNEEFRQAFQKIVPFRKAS", "assay": "5-HT1D binding", "excerpt": "as §2"}, "[2]": {"target": "T1, human recombinant H1 receptor", "assay": "H1 inverse agonism (IP1 accumulation in HEK293/hm H1 cells)", "type": "cell-based", "design": "expressed in transfected cells; host or cells: HEK293 (HEK293/hm H1 clone R-40)"}, "[3]": {"target": "T2, recombinant 5-HT2A receptor (human) (Homo sapiens, UniProt P28223)", "T2 construct": "expressed in transfected cells", "T2 sequence (P28223 whole entry)": "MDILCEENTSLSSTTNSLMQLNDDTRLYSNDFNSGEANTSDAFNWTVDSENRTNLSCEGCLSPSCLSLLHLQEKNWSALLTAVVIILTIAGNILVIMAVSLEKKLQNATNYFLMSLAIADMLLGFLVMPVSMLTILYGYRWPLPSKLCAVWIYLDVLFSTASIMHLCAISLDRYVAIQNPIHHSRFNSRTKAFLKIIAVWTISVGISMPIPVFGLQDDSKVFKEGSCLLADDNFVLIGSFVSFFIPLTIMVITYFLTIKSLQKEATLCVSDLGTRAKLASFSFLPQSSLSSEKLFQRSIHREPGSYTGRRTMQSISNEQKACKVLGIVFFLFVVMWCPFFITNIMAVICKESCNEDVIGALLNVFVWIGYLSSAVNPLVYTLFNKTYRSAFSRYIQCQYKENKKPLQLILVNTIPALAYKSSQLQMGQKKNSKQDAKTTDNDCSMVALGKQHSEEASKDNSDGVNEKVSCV", "assay": "5-HT2A competition binding assay ([3H]-Ketanserin SPA)", "protocol": "[^3H]-Ketanserin binding experiments are carried out in SPA 96-well format. Membranes used in this assay are prepared from AV-12 cells stably expressing recombinant 5-HT2A receptor (human). The incubation is initiated by the addition of a mixture of WGA YSi SPA beads (1 mg/well, Perkin Elmer (MA, USA), RPNQ0011) and 2 μg membranes to assay buffer (67 mM Tris, 0.5 mM EDTA; pH 7.6) containing 3.1 nM [^3H]-Ketanserin and varying concentrations of the test compound (10 point concentration response curves). Non-specific binding is determined in the presence of 20 μM 1-(1-Naphthyl)piperazine. Samples were incubated for four hours at room temperature (22° C.) and then read in a Microbeta Trilux.\nas §1"}, "Dopamine D2": {"target": "Dopamine D2 (Homo sapiens, UniProt P14416)", "sequence (P14416 whole entry)": "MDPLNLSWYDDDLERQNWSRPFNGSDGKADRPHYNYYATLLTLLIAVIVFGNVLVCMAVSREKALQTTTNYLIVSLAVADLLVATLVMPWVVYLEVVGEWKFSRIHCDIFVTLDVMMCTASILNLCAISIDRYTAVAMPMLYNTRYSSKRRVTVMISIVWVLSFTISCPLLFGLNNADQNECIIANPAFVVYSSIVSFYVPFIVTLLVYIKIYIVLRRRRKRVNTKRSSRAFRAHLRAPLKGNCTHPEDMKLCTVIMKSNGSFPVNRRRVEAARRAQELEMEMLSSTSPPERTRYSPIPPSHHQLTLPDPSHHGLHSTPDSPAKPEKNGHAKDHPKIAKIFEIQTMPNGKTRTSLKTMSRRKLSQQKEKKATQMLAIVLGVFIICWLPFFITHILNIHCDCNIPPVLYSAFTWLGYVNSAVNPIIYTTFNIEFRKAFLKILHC", "assay": "Dopamine D2 binding", "excerpt": "as §2"}}, "note": "Structures can show the parent of a compound that is named as a salt.", "data": [{"smiles": "Cc1cc2n(c1)Cc1cc(Cl)ccc1N=C2N1CCN(CC(C)(C)C(=O)O)CC1", "note": "[Example 13, 3-[4-(7-Chloro-2-methyl-5H-pyrrolo[2,1-c][1,4]benzodiazepin-11-yl)piperazin-1-yl]-2,2-dimethylpropanoic acid dihydrochloride]", "values": [{"measurement": "Ki", "setting": "[1]", "value": 16.8, "unit": "nM"}, {"measurement": "IC50", "setting": "native GABAA receptors", "value": "> 50000", "unit": "nM"}, {"measurement": "Ki", "setting": "Dopamine D1", "value": 1860, "unit": "nM"}, {"measurement": "Ki", "setting": "5-HT1D", "value": "> 8550", "unit": "nM"}, {"measurement": "IC50", "setting": "[2]; IP1 accumulation, HEK293/hm H1 cells", "value": "53.9 ± 37", "unit": "nM"}, {"measurement": "suppression of constitutive activity (negative efficacy)", "setting": "[2]; relative to positive control Tripelennamine 10 μM", "value": "126±6", "unit": "%"}, {"measurement": "Ki", "setting": "[3]", "value": 63.2, "unit": "nM"}, {"measurement": "Ki", "setting": "Dopamine D2", "value": 3420, "unit": "nM"}]}]}
